# Test results: patent US12528773B2, “Non-lysosomal glucosylceramidase inhibitors and uses thereof” (ALECTOS THERAPEUTICS INC., priority 2020, dated 2026)
# Assays:
# Format in all cases: biochemical
# [1] = system: rat intestinal alpha-glucosidases; experiment: Inhibition of rat intestinal alpha-glucosidases (rat intestinal lysate, glucose detection); details: compound concentration 25 μM, sucrose as substrate
# In short: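 Rat intestinal acetone-powder lysate in citrate-phosphate pH 6.0 with 50 or 25 μM compound, 3.3% DMSO, 37 °C, 20 min. Sucrose reactions used 2.1 mg/mL lysate and 40 mM sucrose; maltose reactions 0.69 mg/mL lysate and 10 mM maltose. Glucose was detected by Amplex Red fluorescence at 10 min, or by hexokinase absorbance at 340 nm, relative to no-compound wells.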
# [2] = molecular target: T1, GBA2 (Homo sapiens (Human), UniProt Q9HCG7); experiment: Inhibition of GBA2 in cell lysate (4-methylumbelliferone glucopyranoside substrate); details: HEK293T-overexpressing GBA2 cellular homogenate, pH 5.5; read-out: GBA2 IC50;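 further: homogenate of stably transfected HEK293T cells pre-treated with a GCase inhibitor, test compound preincubated 5 min at 37 °C, substrate reaction 20 min at 37 °C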
# [3] = molecular target: T1, GBA2; experiment: Binding specificity for GBA2 over other molecules, Ki or IC50 ratio
# Source text: In some embodiments, one or more of the compounds according to the invention may specifically bind a GBA2. In alternative embodiments, one or more of the compounds according to the invention may specifically bind the active site of a GBA2. […] In alternative embodiments, one or more of the compounds according to the invention may specifically bind the human non-lysosomal glucosylceramidase (GBA2) over the human lysosomal glucosylceramidase (GCase) and/or the human cytosolic glucosylceramidase (GBA3). In alternative embodiments, one or more of the compounds according to the invention may specifically bind the human non-lysosomal glucosylceramidase (GBA2) over the human glucosylceramide synthase (GCS). In alternative embodiments, one or more of the compounds according to the invention may specifically bind the human non-lysosomal glucosylceramidase (GBA2) over an intestinal alpha-glucosidase, where the intestinal alpha-glucosidase may be a sucrase-isomaltase or a maltase-glucoamylase.
# T1 sequence (Q9HCG7 whole entry): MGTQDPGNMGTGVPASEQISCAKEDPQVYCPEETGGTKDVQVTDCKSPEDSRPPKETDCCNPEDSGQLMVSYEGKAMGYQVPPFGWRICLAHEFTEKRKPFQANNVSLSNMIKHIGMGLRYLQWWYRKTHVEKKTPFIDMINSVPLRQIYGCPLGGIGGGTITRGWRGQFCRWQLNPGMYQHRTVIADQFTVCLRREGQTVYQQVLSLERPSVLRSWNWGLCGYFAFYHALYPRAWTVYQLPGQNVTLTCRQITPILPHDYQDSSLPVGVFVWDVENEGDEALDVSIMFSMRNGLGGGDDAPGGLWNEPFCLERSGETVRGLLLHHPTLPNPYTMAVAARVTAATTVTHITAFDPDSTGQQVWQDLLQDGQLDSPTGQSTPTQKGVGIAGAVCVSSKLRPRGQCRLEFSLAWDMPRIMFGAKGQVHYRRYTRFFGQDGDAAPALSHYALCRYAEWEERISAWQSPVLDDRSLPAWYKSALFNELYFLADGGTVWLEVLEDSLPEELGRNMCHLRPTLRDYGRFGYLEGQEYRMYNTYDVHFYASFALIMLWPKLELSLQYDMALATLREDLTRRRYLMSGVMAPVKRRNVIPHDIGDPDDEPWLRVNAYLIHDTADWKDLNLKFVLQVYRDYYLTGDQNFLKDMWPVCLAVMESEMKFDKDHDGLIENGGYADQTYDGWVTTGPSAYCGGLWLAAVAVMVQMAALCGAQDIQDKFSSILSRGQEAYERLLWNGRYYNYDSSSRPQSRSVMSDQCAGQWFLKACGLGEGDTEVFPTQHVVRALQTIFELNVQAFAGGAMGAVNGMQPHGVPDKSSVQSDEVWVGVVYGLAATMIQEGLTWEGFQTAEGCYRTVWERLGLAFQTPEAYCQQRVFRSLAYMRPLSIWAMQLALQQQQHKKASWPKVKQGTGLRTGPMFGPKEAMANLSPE
Structure (SMILES),rat α-glu. (% inhib.) [1],IC50 [2],"binding specificity, IC50(other molecule)/IC50(GBA2) or Ki ratio [3]"
"O[C@H]1[C@H](O)CN(CCc2c(F)cc(N3CCCCC3)cc2F)C[C@@H]1O [Example 11, (3S,4r,5R)-1-(2,6-difluoro-4-(piperidin-1-yl)phenethyl)piperidine-3,4,5-triol]",10%,< 100 nM,enhanced binding specificity
"O[C@H]1[C@H](O)CN(CCc2c(F)cc(N3CCOCC3)cc2F)C[C@@H]1O [Example 12, (3S,4r,5R)-1-(2,6-difluoro-4-morpholinophenethyl)piperidine-3,4,5-triol]",4%,< 100 nM,enhanced binding specificity
"O[C@H]1[C@H](O)CN(CCc2c(F)cc(C3CCOCC3)cc2F)C[C@@H]1O [Example 13, (3S,4r,5R)-1-(2,6-difluoro-4-(tetrahydro-2H-pyran-4-yl)phenethyl)piperidine-3,4,5-triol]",5%,< 100 nM,enhanced binding specificity
"Cc1noc(C)c1-c1cc(F)c(CCN2C[C@@H](O)[C@H](O)[C@@H](O)C2)c(F)c1 [Example 14, (3S,4r,5R)-1-(4-(3,5-dimethylisoxazol-4-yl)-2,6-difluorophenethyl)piperidine-3,4,5-triol]",2%,< 100 nM,enhanced binding specificity
"Cc1n[nH]c(C)c1-c1cc(F)c(CCN2C[C@@H](O)[C@H](O)[C@@H](O)C2)c(F)c1 [Example 15, (3S,4r,5R)-1-(4-(3,5-dimethyl-1H-pyrazol-4-yl)-2,6-difluorophenethyl)piperidine-3,4,5-triol]",8%,< 100 nM,enhanced binding specificity
"Cc1ccccc1N1CC[C@H](CN2C[C@@H](O)[C@H](O)[C@@H](O)C2)C1 [Example 18, (3S,4R,5R)-1-(((R)-1-(o-tolyl)pyrrolidin-3-yl)methyl)piperidine-3,4,5-triol]",0%,< 100 nM,enhanced binding specificity
"O[C@H]1[C@H](O)CN(C[C@H]2CCN(c3cnccc3C(F)(F)F)C2)C[C@@H]1O [Example 20, (3S,4R,5R)-1-(((R)-1-(4-(trifluoromethyl)pyridin-3-yl)pyrrolidin-3-yl)methyl)piperidine-3,4,5-triol]",4%,< 100 nM,enhanced binding specificity
"O[C@H]1[C@H](O)CN(C[C@H]2CCN(c3nc(C(F)(F)F)cs3)C2)C[C@@H]1O [Example 21, (3S,4R,5R)-1-(((R)-1-(4-(trifluoromethyl)thiazol-2-yl)pyrrolidin-3-yl)methyl)piperidine-3,4,5-triol]",6%,< 100 nM,enhanced binding specificity
"O[C@H]1[C@H](O)CN(C[C@H]2CCCN(c3ncccc3C(F)(F)F)C2)C[C@@H]1O [Example 29, (3S,4R,5R)-1-(((R)-1-(3-(trifluoromethyl)pyridin-2-yl)piperidin-3-yl)methyl)piperidine-3,4,5-triol]",4%,< 100 nM,enhanced binding specificity
"O[C@H]1[C@H](O)CN(C[C@H]2CCCN(c3cccc(C(F)(F)F)n3)C2)C[C@@H]1O [Example 30, (3S,4R,5R)-1-(((R)-1-(6-(trifluoromethyl)pyridin-2-yl)piperidin-3-yl)methyl)piperidine-3,4,5-triol]",6%,< 100 nM,enhanced binding specificity
"O[C@H]1[C@H](O)CN(C[C@H]2CCCN(c3cccnc3C(F)(F)F)C2)C[C@@H]1O [Example 31, (3S,4R,5R)-1-(((R)-1-(2-(trifluoromethyl)pyridin-3-yl)piperidin-3-yl)methyl)piperidine-3,4,5-triol]",0%,< 100 nM,enhanced binding specificity
"O[C@H]1[C@H](O)CN(C[C@H]2CCCN(c3nc4ccccc4s3)C2)C[C@@H]1O [Example 34, (3S,4R,5R)-1-(((R)-1-(benzo[d]thiazol-2-yl)piperidin-3-yl)methyl)piperidine-3,4,5-triol]",2%,< 100 nM,enhanced binding specificity
"O[C@H]1[C@H](O)CN(C[C@H]2CCCN(c3cccc4scnc34)C2)C[C@@H]1O [Example 35, (3S,4R,5R)-1-(((R)-1-(benzo[d]thiazol-4-yl)piperidin-3-yl)methyl)piperidine-3,4,5-triol]",7%,< 100 nM,enhanced binding specificity
"O[C@H]1[C@H](O)CN(C[C@@H]2CCCN(c3ncccc3C(F)(F)F)C2)C[C@@H]1O [Example 36, (3S,4S,5R)-1-(((S)-1-(3-(trifluoromethyl)pyridin-2-yl)piperidin-3-yl)methyl)piperidine-3,4,5-triol]",0%,< 100 nM,enhanced binding specificity
"O[C@H]1[C@H](O)CN(C[C@@H]2CCCN(c3cnccc3C(F)(F)F)C2)C[C@@H]1O [Example 38, (3S,4S,5R)-1-(((S)-1-(4-(trifluoromethyl)pyridin-3-yl)piperidin-3-yl)methyl)piperidine-3,4,5-triol]",0%,< 100 nM,enhanced binding specificity
